Results taken from ChEMBL document CHEMBL3886262, “Azetidine compounds, compositions and methods of use” (2015).

Target: T1, Bifunctional epoxide hydrolase 2 (Homo sapiens, UniProt P34913)
T1 sequence (P34913 whole entry): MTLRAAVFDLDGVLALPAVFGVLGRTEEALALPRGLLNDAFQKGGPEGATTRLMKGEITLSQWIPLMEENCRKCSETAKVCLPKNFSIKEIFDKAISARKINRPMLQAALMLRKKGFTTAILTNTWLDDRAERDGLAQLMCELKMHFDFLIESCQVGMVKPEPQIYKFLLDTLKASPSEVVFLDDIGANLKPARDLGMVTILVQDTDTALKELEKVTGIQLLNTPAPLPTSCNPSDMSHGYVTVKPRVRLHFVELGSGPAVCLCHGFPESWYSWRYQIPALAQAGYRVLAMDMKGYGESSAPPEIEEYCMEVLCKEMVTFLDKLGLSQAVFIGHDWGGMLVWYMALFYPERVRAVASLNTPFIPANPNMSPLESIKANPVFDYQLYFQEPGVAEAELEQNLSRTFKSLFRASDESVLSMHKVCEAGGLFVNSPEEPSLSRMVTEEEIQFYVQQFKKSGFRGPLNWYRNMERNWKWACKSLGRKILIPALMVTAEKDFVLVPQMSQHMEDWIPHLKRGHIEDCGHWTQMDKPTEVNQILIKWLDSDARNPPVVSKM
Experiment: Enzyme Assay: Test compounds (1.6 mM stock in DMSO) were diluted 3 fold in series in DMSO and 0.8 microliters per well were added into 384-well NBS microplates (Corning). Resorufin epoxide substrate (20 uM stock in DMSO) was diluted to 5 μM with Assay Buffer (25 mM bis-Tris-HCl, pH 7.0, 1 mM DTT and 0.2 mg/ml BSA) and 8 microliters per well were added to the microplates. Thirty two microliters per well of 3.6 nM soluble epoxide hydrolase in Assay Buffer was then added. The samples were incubated at room temperature and assay signals were monitored by reading excitation at 530 nm and emission fluorescence at 590 nm on a PlateVision (Zeiss) reader every 2 minutes for 8 times.

IC50: 79 nM
Structure (SMILES): O=C(NCc1ccc(Cl)cc1Cl)N1CC2(C1)CN(S(=O)(=O)c1ccccc1)C2
